Results: patent US6653258B1 (priority 1987, dated 2003)

Assays:
[1] = tested on: Erysiphe graminis; test: Foliar fungal disease test on Erysiphe graminis, plants inoculated 24 hours before treatment (Table V); assay type: in vivo; parameters: key: 4: no disease; 3: trace −5% of disease on untreated plants; 6-25% of disease on untreated plants; 1: 26-59% of disease on untreated plants; 60-100% of disease on untreated plants; conditions: plants inoculated 24 hours before treatment
[2] = tested on: foliar fungal diseases of plants; assay type: in vivo; parameters: key to disease control grading, […] (VINE): 4: no disease; 3: trace −5% of disease on untreated plants; key to disease control grading, PUCCINIA RECONDITA (WHEAT) / disease control grading, VENTURIA INAEQUALIS (APPLE) / disease control grading, CERCOSPORA ARACHIDICOLA (PEANUT) / disease control grading, PH[…] (TOMATO) / disease control grading, P[…] (RICE): 4: no disease; 3: trace −5% of disease on untreated plants; 6-25% of disease on untreated plants; 1: 26-59% of disease on untreated plants; 60-100% of disease on untreated plants; conditions: applied to soil (roots) and foliage one or two days before inoculation; for disease control grading, CERCOSPORA ARACHIDICOLA (PEANUT): Cercospora arachidicola on peanut; for disease control grading, P[…] (RICE): P[…] on rice; for disease control grading, PH[…] (TOMATO): Ph[…] on tomato; for disease control grading, PUCCINIA RECONDITA (WHEAT): Puccinia recondita on wheat; for disease control grading, VENTURIA INAEQUALIS (APPLE): Venturia inaequalis on apple; for disease control grading, […] (VINE): […] on vine

| Structure (SMILES) | disease control grading, ERYSIPHE GRAMINIS (BARLEY) [1] | disease control grading, CERCOSPORA ARACHIDICOLA (PEANUT) [2] | disease control grading, P[…] (RICE) [2] | disease control grading, PH[…] (TOMATO) [2] | disease control grading, PUCCINIA RECONDITA (WHEAT) [2] | disease control grading, VENTURIA INAEQUALIS (APPLE) [2] | disease control grading, […] (VINE) [2] |
| --- | --- | --- | --- | --- | --- | --- | --- |
| CO/C=C(/C(=O)OC)c1ccccc1COc1cccc(O)c1 [171 (Table I)] | 1 (26-59% of disease on untreated plants) | 3 (trace −5% of disease on untreated plants) | 0 (60-100% of disease on untreated plants) | 3 (trace −5% of disease on untreated plants) | 3 (trace −5% of disease on untreated plants) | 4 | 4 |
| CO/C=C(/C(=O)OC)c1ccccc1COc1cccc(/N=C/c2ccccc2)c1 [180 (Table I)] | 0 (60-100% of disease on untreated plants) | 4 | 2 (6-25% of disease on untreated plants) | 4 | 3 (trace −5% of disease on untreated plants) | 0 (60-100% of disease on untreated plants) | 4 |
| CO/C=C(/C(=O)OC)c1ccccc1COc1cccc(I)c1 [25 (Table I)] | 4 | 4 | 2 (6-25% of disease on untreated plants) | 3 (trace −5% of disease on untreated plants) | 4 | 4 | 4 |
| CO/C=C(/C(=O)OC)c1ccccc1COc1ccccn1 [67 (Table I)] | 4 | 4 | 4 | 4 | 4 | 4 | 4 |
| CO/C=C(/C(=O)OC)c1ccccc1COc1cccc(C)c1 [164 (Table I)] | 4 | 4 | 4 | 3 (trace −5% of disease on untreated plants) | 4 | 4 | 4 |
| CO/C=C(/C(=O)OC)c1ccccc1COc1cccc(C(F)(F)F)c1 [168 (Table I)] | 4 | 3 (trace −5% of disease on untreated plants) | 4 | 4 | 4 | 4 | 4 |
| CO/C=C(/C(=O)OC)c1ccccc1COc1cccc(F)c1 [155 (Table I)] | 4 | 4 | 4 | 4 | 4 | 4 | 4 |
| CO/C=C(/C(=O)OC)c1ccccc1COc1c(Cl)cccc1Cl [44 (Table I)] | 4 | 3 (trace −5% of disease on untreated plants) | 2 (6-25% of disease on untreated plants) | 3 (trace −5% of disease on untreated plants) | 4 | 4 | 4 |
| CO/C=C(/C(=O)OC)c1ccccc1CSc1ccccc1 [1 (Table II)] | 2 (6-25% of disease on untreated plants) | 0 (60-100% of disease on untreated plants) | 3 (trace −5% of disease on untreated plants) | 4 | 4 | 4 | 4 |
